According to patent publication US20220117949A1, “LTA4H INHIBITORS FOR THE TREATMENT OF HIDRADENITIS SUPPURATIVA” (NOVARTIS AG, priority 2019, published 2022):

Tests used:
[1] = tested on: LTB4 in human skin blister fluids; experiment: LTB4 in cantharidin induced skin blister fluid (FIH); assay type: in vivo; settings: 40 mg daily dose (20 mg BID)
Procedure: In parts 1 and 2 of the clinical study (SAD and MAD), skin blisters were induced on the arm of subjects in selected cohorts. For this 10 mm diameter filter paper discs humected with a solution of cantharidin (such as cantharone) were applied on the arm of the subject, inducing an epidermal blister, and the blister fluid was collected approximately 24 hours (+/−1 hr) after the application.
(§1) Blister fluid samples were collected at Day 1 pre-dose and Day 2 pre-dose in SAD cohort 4 as well as Day 1 pre-dose and Day 9 predose in MAD cohort 2-5.
Blister fluid samples were received frozen on dry ice and stored at −70° C. or below until analysis. On the day of analysis, samples were taken out of the freezer and immediately extracted after Thawing.
90 μL of blister fluid (sample or QC sample) was enriched with 5 μL of internal standard solution IS-L-2 (deuterated Leukotrienes and lipoxin at 50 ng/mL) and vortexed in a micro centrifuge tube. 90 μL of methanol with 0.1% formic acid was added. This was followed by 5 minutes vortex mixing and 10 minutes sonication on ice. The samples were incubated at −20° C. in a freezer for 40 minutes. This was followed by centrifugation at 16,000 rpm (27,500×g) at 4° C. for 20 minutes. 160 μL of the supernatant was transferred onto Millipore 5 kDa MWCO filters. MWCO filters have previously been cleaned by centrifuging 500 μL methanol/water 1/1 thru the filters. […]

[2] = tested on: LTB4 biosynthesis in lesional skin biopsies of HS patients; experiment: LTB4 biosynthesis in ionophore-stimulated skin biopsies of HS patients (LC-MS/MS); assay type: cell-based, human; settings: 5 uM inhibitor 2 h, then 2 h 10 ug/mL ionophore
Procedure: Frozen human skin biopsies from healthy skin or discard HS lesions (on average 500 mg) were pulverized using mechanical force (Covaris) and homogenized in 4 mL of methanol containing deuterium labelled internal standards (ISTDs) using a bead-beating device (2×20 sec cycles of 5000 rpm, Precellys) maintained at low temperature. Then, samples were kept at −20° C./45 min to allow for protein precipitation and centrifuged at 13000 rpm for 10 min at 4° C. The supernatants were then evaporated (Genevac) until complete dryness and reconstituted in 70 μL of methanol:water (50%/50%; v/v) followed by injection in the LC-MS/MS system. Calibration curves were freshly prepared by serial dilution of pure standards in methanol:water (50%/50%, v/v) containing ISTDs and quantitation was done by comparing metabolite to ISTD peak area ratios in samples to that of calibrators.
Two analytical platforms were employed for data acquision depending on instrument availability: 1) Waters H class UPLC system coupled to a Waters XevoTQS triple quadrupole mass (QQQ) spectrometer and 2) a Dionex Ultimate 3000RS UPLC coupled to a Sciex6500+ QQQ. Separation of lipids was achieved using reverse-phase columns ACQUITY UPLC BEH C18 1.7 μm, 2.1×50 mm and CORTECS UPLC C18 1.6 μm, 2.1×50 mm heated at 40° C., respectively. The flow rate was set to 0.180 mL/min and the mobile phase consisted of water-acetic acid (99.99/0.01; v/v) (A) and methanol-acetonitrile-acetic acid (B) (50/50/0.01; v/v/v). The eluent gradient was maintained at 45% of B for 2 min, follow by 45%-65% of B during 2-16 min, from 65%-100% during 16-19 min and 100% of B from 19-22 min. From 23-30 min the column was re-equilibrated with initial conditions. Ionization was performed using an ESI source operated in negative ion mode. Fragmentation was tuned for each compound individually.
. Skin biopsies were then harvested, lipids extracted and analyzed for generation of LTB4 by LC-MS/MS as described above. Stimulated skin biopsies of HS lesions generated a large amount of the lipid mediator LTB4. […]. (FIGS. 10 and 11)
Lesional skin biopsies of HS patients were left untreated or fully stimulated with ionophore to induce LTB4 biosynthesis in the presence or absence of a LTA4H inhibitor
LTB4 quantities are given in fmol/mg tissue. Shown are representative results obtained with one donor per compound out of several tested.

[3] = clinical; settings: for mean concentration in blister fluid: pre-dose on Day 9
From the text: In parts 1 and 2 of the clinical study (SAD and MAD), skin blisters were induced on the arm of subjects in selected cohorts.
as §1

[4] = First in human trial Part 1 (SAD): plasma pharmacokinetics
From the text: (§2) The study consisted of a part 1, single ascending dose (SAD) and a part 2 multiple ascending dose (MAD).
(§3) Part 1 was a randomized, subject-blinded and Investigator-partial-blinded, placebo-controlled, single ascending oral dose study.

[5] = First in human trial Part 2 (MAD): plasma pharmacokinetics
Procedure: as §2
(§4) Cohort 1: multiple once daily (qd) oral dose of 5 mg or matching placebo Cohort 2: multiple once daily (qd) oral dose of 15 mg or matching placebo Cohort 3: multiple oral daily dose of 20 mg or matching placebo administered twice daily (bid) Cohort 4: multiple oral daily dose of 40 mg or matching placebo administered twice daily (bid) Cohort 5: multiple oral daily dose of 80 mg or matching placebo administered twice daily (bid) Part 2 Multiple Ascending Dose Design (qd)—Overview of the Study Part 2 Multiple Ascending Dose Design (Bid)—Overview of the Study

[6] = First in human trial (SAD/MAD): safety and tolerability in healthy subjects
Procedure: as §2, §3, §4

[7] = tested on: Leukotriene B4 (LTB4) in blood; experiment: Leukotriene B4 (LTB4) in human plasma of ex vivo stimulated whole blood (FIH PD biomarker, LC-MS/MS)
Procedure: Therefore, LTB4 concentrations were determined in plasma of ex-vivo stimulated whole blood by a LC-MS/MS method.
Ex-vivo stimulation was performed at the clinical site according to the following procedure: Whole blood (500 μL) were stimulated for 30 min using Calcium Ionophore A23187.
Human plasma was processed with organic precipitation followed by separation by reverse phase high performance liquid chromatography with tandem mass spectrometric detection.
AB Sciex QTrap 5500 MS/MS Turbo Spray Ion Drive negative ion mode.
Sample from each subject and time point was prepared and analyzed in three aliquots. Aliquot one and two contained plasma from ex-vivo stimulated whole blood, while aliquot three as negative control contained plasma from non-stimulated whole blood.
LTB4 concentration data were calculated as mean of concentration of aliquot one and two. Concentration of aliquot three was not be included in the calculation. The change from baseline and percent inhibition (percent of baseline) for each biomarker was calculated. Baseline was the mean of the Baseline and Day 1, −1 h measurements.

[8] = 5 mg qd to 80 mg bid (16-fold per dosing interval)

## N[C@@H](CC(=O)O)Cn1nnc(-c2ccc(Oc3ncc(Cl)cc3F)cc2)n1 [compound of example 1, (S)-3-amino-4-(5-(4-((5-chloro-3-fluoropyridin-2-yl)oxy)phenyl)-2H-tetrazol-2-yl)butanoic acid]
[1]
  suppression of LTB4 in human skin blister fluids: 90%
[2]
  LTB4 generation by stimulated skin biopsies of HS lesions: almost no LTB4
[2]; listed as Compound of Example 1
  LTB4 generation by stimulated skin biopsies of HS lesions: suppresses
[3]; Part 2, 15 mg qd
  mean concentration in blister fluid: 4.62 ng/mL
[3]; Part 2, 80 mg bid
  mean concentration in blister fluid: 233 ng/mL
[3]; human, in vivo, 30 mg
  Kp at 24 h: 0.14
  concentration at 24 h: 4.67 ng/mL
[4]; 5 mg to 2 times 100 mg
  dose proportionality of AUClast over the whole dose range: demonstrated
[4]; 40-fold increase in daily dose (5 mg to 100 mg bid)
  AUC0-24 h increase with dose: 75 fold
[4]; SAD
  increase in dose over which AUC0-24 h can be considered dose proportional: ≤ 2.57 fold
  increase in dose over which Cmax can be considered dose proportional: up to 4.50 fold
[4]; dose increase from 5 to 100 mg (20-fold)
  Cmax increase with dose: 21.7 fold
[4]; human, in vivo, po
  Tmax: 1 to 1.5 h
  half-life: 245 to 513 h
[5]; [8]
  AUC on Day 12 (AUC0-12 h,ss bid; AUC0-24 h,ss qd) increase with dose: 20.9 fold
  Cmax on Day 12 increase with dose: 17.9 fold
[5]; BID oral dosing, fed state
  time to reach steady state exposure: 3 to 4 days
[5]; MAD
  increase in dose over which AUCtau can be considered dose proportional: ≤ 6.29 fold
  increase in dose over which Cmax,ss can be considered dose proportional: up to 2.12 fold
[5]; all higher doses (above 5 mg qd)
  accumulation to steady state: ≤ 1.4 fold
[5]; day 1 of the bid regimen
  mean Racc, day 1: 1.09-1.29
[5]; lowest dose of 5 mg qd
  mean accumulation to steady state: 2.1 fold
[5]; morning pre-dose concentrations, MAD
  time at which steady state is achieved: ~3 days
[5]; steady state, 5 mg qd to 40 mg bid
  dose proportionality criteria for AUCtau: met
[6]; SAD and MAD, healthy subjects
  findings in physical exam, vital signs or ECGs related to compound: No significant findings
[6]; SAD up to 200 mg total daily dose, MAD up to 80 mg BID for 12 days
  maximal tolerated dose: no maximal tolerated dose was established
[6]; SAD up to 2 x 100 mg, MAD up to 80 mg BID for 12 days, healthy subjects
  adverse events leading to study discontinuation: No adverse events led to study discontinuation
[6]; doses up to 80 mg bid (160 mg daily dose) over 12 days, healthy subjects
  tolerability: well tolerated
[6]; one SAD 5 mg, two MAD 80 mg BID, asymptomatic, transient
  treated subjects with increases in lipase: Three
[6]; the three subjects with lipase elevations, mild
  amylase increase accompanying lipase increase: ≤ 1.5 ULN
[7]; 40 mg daily dose (20 mg BID)
  suppression of LTB4 in blood at steady state: nearly complete suppression
[7]; SAD 5 mg, at 24 hours
  blood cell stimulated LTB4 release, reduction from baseline: 25-50%

## N[C@@H](CC(=O)O)Cn1nnc(-c2ccc(Oc3ccc(Cl)cc3)cc2)n1 [compound of embodiment 3D, (S)-3-amino-4-(5-(4-(4-chlorophenoxy)-phenyl)-2H-tetrazol-2-yl)butanoic acid]
[2]
  LTB4 generation by stimulated skin biopsies of HS lesions: almost no LTB4
[2]; listed as Compound of embodiment 3D
  LTB4 generation by stimulated skin biopsies of HS lesions: suppresses
